Strand notation (5' to 3'): a small letter for the sugar, then the base; units joined by * are phosphorothioate-linked, units joined directly phosphodiester-linked; [ ] holds rarer units or linkages, { } end groups; capitals alone tell only the bases. e = 2'-O-(2-methoxyethyl) (MOE); [5mC] = 5-methylcytosine; d = 2'-deoxy (DNA)
Experiments:
[1] = parameters: species or system Sprague-Dawley rats; conditions: rat, in vivo, sc, 20 mg/kg
Protocol: The concentration of the full-length oligonucleotide as well as the total oligonucleotide concentration (including the degraded form) was measured. The method used is a modification of previously published methods (Leeds et al., 1996; Geary et al., 1999) which consist of a phenol-chloroform (liquid-liquid) extraction followed by a solid phase extraction. An internal standard (ISIS 355868, a 27-mer 2′-O-methoxyethyl modified phosphorothioate oligonucleotide, […], designated herein as SEQ ID NO: 270) was added prior to extraction. […] The results are presented in Tables 91 and 92, expressed as μg/g liver or kidney tissue. Half-lives were then calculated using WinNonlin software ([…]).

[2] = Bleeding assay, Surgicutt Jr. device (Example 45); assay type: in vivo, cynomolgus monkeys; parameters: unit not given here; conditions: escalating dose regimen
Protocol: (§1) Groups, each consisting of two male and three female monkeys, were injected subcutaneously with ISIS 416838, ISIS 416850, ISIS 416858, ISIS 416864, or ISIS 417002 in escalating doses. Antisense oligonucleotide was administered to the monkeys at 5 mg/kg three times per a week for week 1; 5 mg/kg twice per week for weeks 2 and 3; 10 mg/kg three times per week for week 4; 10 mg/kg twice per week for weeks 5 and 6; 25 mg/kg three times per week for week 7; and 25 mg/kg twice per week for weeks 8, 9, 10, 11, and 12. One control group, consisting of two male and three female monkeys, was injected subcutaneously with PBS according to the same dosing regimen. An additional experimental group, consisting of two male and three female monkeys, was injected subcutaneously with ISIS 416850 in a chronic, lower dose regimen. Antisense oligonucleotide was administered to the monkeys at 5 mg/kg three times per week for week 1; 5 mg/kg twice per week for week 2 and 3; 10 mg/kg three times per week for week 4; and 10 mg/kg twice per week for weeks 5 to 12. Body weights were measured weekly. Blood samples were collected 14 days and 5 days before the start of treatment and subsequently once per week for Factor 11 protein activity analysis in plasma, fibrinogen measurement, PT and aPTT measurements, bleeding times, and measurement of various hematologic factors. On day 85, the monkeys were euthanized by exsanguination while under deep anesthesia, and organs harvested for further analysis.
On different days during the treatment period, bleeding assay was performed using a Surgicutt Jr. device (ITC, New Jersey). Monkeys were placed in monkey chair with their arm placed in a steady support. The arm was lightly shaved and a sphygmomanometer was placed on the upper arm. The cuff of the sphygmomanometer was inflated to 40 mm Hg and this pressure was maintained throughout the procedure. The area on the upper arm to be incised was cleansed with an antiseptic swab and the Surgicutt Jr device was used to make an incision over the lateral aspect, volar surface of the forearm, parallel to and 5 cm below the antecubital crease. At the exact moment the incision was made, a stopwatch was started. Every 30 seconds, blood from the incision was blotted out using a blotting paper without directly touching the incision, so that formation of the platelet plug was not disturbed. Blood was blotted out every 30 seconds until blood no longer stained the paper. The stopwatch was then stopped and the bleeding time determined. The sphygmomanometer was removed from the animal's arm, the incision site was antiseptically swabbed and a wound closure strip applied. The ISIS oligonucleotide, ISIS 416850, given with the chronic dose regimen is distinguished from the other oligonucleotides with an asterisk (*).

Factor 11 protein = Factor 11 protein in monkey plasma by sandwich ELISA (Example 45); assay type: in vivo, cynomolgus monkeys; conditions: escalating dose regimen, plasma ELISA
Protocol: as §1
Plasma samples from all monkey groups taken on different days were analyzed by a sandwich-style ELISA assay (Affinity Biologicals Inc.) using an affinity-purified polyclonal anti-Factor 11 antibody as the capture antibody and a peroxidase-conjugated polyclonal anti-Factor 11 antibody as the detecting antibody. Monkey plasma was diluted 1:50 for the assay. Peroxidase activity was expressed by incubation with the substrate o-phenylenediamine. The color produced was quantified using a microplate reader at 490 nm and was considered to be proportional to the concentration of Factor 11 in the samples.
The results are presented in Table 115, expressed as percentage reduction relative to that of the PBS control.

[3] = Tolerability in CD1 mice: hematology assays (Example 41); conditions: 50 mg/kg s.c. twice per week for 6 weeks, blood
[4] = Tolerability in Sprague-Dawley rats: body weight and organ weight (Example 44); assay type: in vivo; conditions: 50 mg/kg s.c. twice per week for 6 weeks; for Change in Kidney weight / Change in Liver weight / Change in Spleen weight: end of study
[5] = Tolerability in Sprague-Dawley rats: liver function (Example 44); assay type: in vivo; parameters: Albumin: unit not given here; conditions: 50 mg/kg s.c. twice per week for 6 weeks, plasma

412223 (antisense ACAGTTTCTGGCAGGCCTCG; 5-10-5 MOE gapmer, further chemistry not given here) [compound 412223]
Half-life of ISIS oligonucleotides in the liver and kidney [1]: 22 days

412224 (antisense GCATTGGTGCACAGTTTCTG; 5-10-5 MOE gapmer, further chemistry not given here) [compound 412224]
Half-life of ISIS oligonucleotides in the liver and kidney [1]: 17 days

412225 (antisense GCAGCGGACGGCATTGGTGC; 5-10-5 MOE gapmer, further chemistry not given here) [compound 412225]
Half-life of ISIS oligonucleotides in the liver and kidney [1]: 21 days

413482 (antisense GGACGGCATTGGTGCACAGT; 5-10-5 MOE gapmer, further chemistry not given here) [compound 413482]
Half-life of ISIS oligonucleotides in the liver and kidney [1]: 20 days

ISIS 416838: MOE gapmer, nucleobases 1018 to 1042 of SEQ ID NO: 1 (Table 6) (antisense GCAACCGGGATGATGAGTGC; MOE gapmer, wing and gap sizes not given here)
bleeding time ([2]; day 15): 167 | bleeding time ([2]; day 22): 165 | bleeding time ([2]; day 36): 166 | bleeding time ([2]; day 43): 120 | bleeding time ([2]; day 57): 238 | bleeding time ([2]; day 64): 131 | bleeding time ([2]; day 78): 145 | bleeding time ([2]; day 85): 201 | bleeding time ([2]; day −5): 150 | bleeding time ([2]; day −14): 200 | Inhibition of Factor 11 protein relative to the PBS control (Factor 11 protein; day 8): 3% | Inhibition of Factor 11 protein relative to the PBS control (Factor 11 protein; day 15): 4% | Inhibition of Factor 11 protein relative to the PBS control (Factor 11 protein; day 22): 5% | Inhibition of Factor 11 protein relative to the PBS control (Factor 11 protein; day 29): 8% | Inhibition of Factor 11 protein relative to the PBS control (Factor 11 protein; day 36): 11% | Inhibition of Factor 11 protein relative to the PBS control (Factor 11 protein; day 43): 5% | Inhibition of Factor 11 protein relative to the PBS control (Factor 11 protein; day 50): 8% | Inhibition of Factor 11 protein relative to the PBS control (Factor 11 protein; day 57): 10% | Inhibition of Factor 11 protein relative to the PBS control (Factor 11 protein; day 64): 11% | Inhibition of Factor 11 protein relative to the PBS control (Factor 11 protein; day 71): 12% | Inhibition of Factor 11 protein relative to the PBS control (Factor 11 protein; day 78): 10% | Inhibition of Factor 11 protein relative to the PBS control (Factor 11 protein; day 85): 10% | Inhibition of Factor 11 protein relative to the PBS control (Factor 11 protein; day −5): 0% | Inhibition of Factor 11 protein relative to the PBS control (Factor 11 protein; day −14): 0%

ISIS 417002: MOE gapmer, nucleobases 1275 to 1318 of SEQ ID NO: 1 (Table 8) (antisense GGTGCACAGTTTCTGGCAGG; MOE gapmer, wing and gap sizes not given here)
bleeding time ([2]; day 15): 174 | bleeding time ([2]; day 22): 194 | bleeding time ([2]; day 36): 186 | bleeding time ([2]; day 43): 120 | bleeding time ([2]; day 57): 206 | bleeding time ([2]; day 64): 146 | bleeding time ([2]; day 78): 163 | bleeding time ([2]; day 85): 182 | bleeding time ([2]; day −5): 175 | bleeding time ([2]; day −14): 185 | Inhibition of Factor 11 protein relative to the PBS control (Factor 11 protein; day 8): 0% | Inhibition of Factor 11 protein relative to the PBS control (Factor 11 protein; day 15): 4% | Inhibition of Factor 11 protein relative to the PBS control (Factor 11 protein; day 22): 2% | Inhibition of Factor 11 protein relative to the PBS control (Factor 11 protein; day 29): 8% | Inhibition of Factor 11 protein relative to the PBS control (Factor 11 protein; day 36): 8% | Inhibition of Factor 11 protein relative to the PBS control (Factor 11 protein; day 43): 9% | Inhibition of Factor 11 protein relative to the PBS control (Factor 11 protein; day 50): 13% | Inhibition of Factor 11 protein relative to the PBS control (Factor 11 protein; day 57): 24% | Inhibition of Factor 11 protein relative to the PBS control (Factor 11 protein; day 64): 26% | Inhibition of Factor 11 protein relative to the PBS control (Factor 11 protein; day 71): 30% | Inhibition of Factor 11 protein relative to the PBS control (Factor 11 protein; day 78): 22% | Inhibition of Factor 11 protein relative to the PBS control (Factor 11 protein; day 85): 23% | Inhibition of Factor 11 protein relative to the PBS control (Factor 11 protein; day −5): 0% | Inhibition of Factor 11 protein relative to the PBS control (Factor 11 protein; day −14): 0%

ISIS 445522: 5-8-5 or 6-8-6 MOE microwalk gapmer (Table 44) (antisense eG*e[5mC]*eA*e[5mC]*eA*dG*dT*dT*dT*d[5mC]*dT*dG*dG*e[5mC]*eA*eG*eG*e[5mC])
HCT [3]: 49% | Lymphocyte [3]: 3997 | Neutrophil [3]: 698 | Platelets [3]: 1005 | RBC [3]: 9.7 | WBC [3]: 5 | hemoglobin [3]: 14.6 g/dL

ISIS 445531: 5-8-5 or 6-8-6 MOE microwalk gapmer (Table 44) (antisense eG*eG*e[5mC]*eA*eT*dT*dG*dG*dT*dG*d[5mC]*dA*d[5mC]*eA*eG*eT*eT*eT)
HCT [3]: 48% | Lymphocyte [3]: 6125 | Neutrophil [3]: 2341 | Platelets [3]: 996 | RBC [3]: 9.4 | WBC [3]: 9 | hemoglobin [3]: 14.5 g/dL

ISIS 449707: 3-8-3, 4-8-4, 2-10-2, 3-10-3 or 4-10-4 MOE microwalk gapmer (Table 46) (antisense e[5mC]*eA*e[5mC]*eA*dG*dT*dT*dT*d[5mC]*dT*dG*dG*e[5mC]*eA*eG*eG)
body weight [4]: 352 g | Change in Kidney weight [4]: +80% | Change in Liver weight [4]: +41% | Change in Spleen weight [4]: +400% | ALT [5]: 61 IU/L | AST [5]: 199 IU/L | Albumin [5]: 3.1 | Bilirubin [5]: 0.2 mg/dL

ISIS 449708: 3-8-3, 4-8-4, 2-10-2, 3-10-3 or 4-10-4 MOE microwalk gapmer (Table 46) (antisense eA*e[5mC]*eA*dG*dT*dT*dT*d[5mC]*dT*dG*dG*e[5mC]*eA*eG)
body weight [4]: 382 g | Change in Kidney weight [4]: +40% | Change in Liver weight [4]: +31% | Change in Spleen weight [4]: +259% | ALT [5]: 25 IU/L | AST [5]: 90 IU/L | Albumin [5]: 3.2 | Bilirubin [5]: 0.1 mg/dL

ISIS 449709: 3-8-3, 4-8-4, 2-10-2, 3-10-3 or 4-10-4 MOE microwalk gapmer (Table 46) (antisense eG*e[5mC]*eA*e[5mC]*dA*dG*dT*dT*dT*d[5mC]*dT*dG*dG*d[5mC]*eA*eG*eG*e[5mC])
body weight [4]: 376 g | Change in Kidney weight [4]: +19% | Change in Liver weight [4]: +8% | Change in Spleen weight [4]: +231% | ALT [5]: 63 IU/L | AST [5]: 126 IU/L | Albumin [5]: 3.1 | Bilirubin [5]: 0.2 mg/dL

ISIS 449710: 3-8-3, 4-8-4, 2-10-2, 3-10-3 or 4-10-4 MOE microwalk gapmer (Table 46) (antisense e[5mC]*eA*e[5mC]*dA*dG*dT*dT*dT*d[5mC]*dT*dG*dG*d[5mC]*eA*eG*eG)
body weight [4]: 344 g | Change in Kidney weight [4]: +50% | Change in Liver weight [4]: +82% | Change in Spleen weight [4]: +302% | ALT [5]: 36 IU/L | AST [5]: 211 IU/L | Albumin [5]: 2.9 | Bilirubin [5]: 0.1 mg/dL

ISIS 449711: 3-8-3, 4-8-4, 2-10-2, 3-10-3 or 4-10-4 MOE microwalk gapmer (Table 46) (antisense eA*e[5mC]*dA*dG*dT*dT*dT*d[5mC]*dT*dG*dG*d[5mC]*eA*eG)
body weight [4]: 362 g | Change in Kidney weight [4]: +72% | Change in Liver weight [4]: +52% | Change in Spleen weight [4]: +327% | ALT [5]: 32 IU/L | AST [5]: 163 IU/L | Albumin [5]: 2.9 | Bilirubin [5]: 0.1 mg/dL

— patent US20230263822A1, “MODULATION OF FACTOR 11 EXPRESSION” (Ionis Pharmaceuticals, Inc., priority 2008, published 2023)
